According to patent publication US20080075660A1, “Near infrared-fluorescence using phospholipid ether analog dyes in endoscopic applications” (Cellectar, LLC, priority 2006, published 2008):

Columns and labels:
colon tumors = assay: microPET/microCT imaging of I-124-NM404 in colon tumor model in rats (PIRC rat); format: in vivo
Source text: FIG. 1 provides a 2D microCT projection of an excised PIRC rat colon filled with 2% barium (A) and ^124I-NM404 microPET image in a PIRC Rat (B) and the fused microPET/microCT image (C). Fiducial marker (M), Tumor (arrow).
Multiple tumors have been detected protruding into the colon lumen.

malignant tumors = details: radiolabeled versions (such as I-124), known from earlier studies; cited from earlier work

With `C[N+](C)(C)CCOP(=O)([O-])OCCCCCCCCCCCCCCCCCCc1ccc(I)cc1` [NM404, 18-(p-Iodophenyl)octadecyl phosphocholine] the “accumulation in excised colon on microPET image” value (colon tumors; PIRC rat colon with multiple tumors, microPET) was “one area of accumulation only”, the “accumulation in colon tumors, fused microCT/microPET image” value (colon tumors; adenocarcinoma versus other colon tumors) was “seen only in a tumor that later proved to be an adenocarcinoma” and the “accumulation in benign polyps” value (colon tumors; all other colon tumors, which turned out to be benign polyps) was “did not show accumulation”. For the same compound, the “accumulation in malignant versus benign tumors” value (malignant tumors) was “accumulate in malignant tumors, but not in benign tumors such as polyps”.
